The values that follow come from patent US4405637A, “β-Lactam antibacterial agents” (Beecham Group Limited, priority 1977, dated 1983).

≈ marks a conversion by molar mass, not a printed value.

Common to all, as to assay: inhibition of bacterial growth, MIC (agar)
Assay type in all cases: cell-based

In assay [1] the test system is Salmonella typhimurium. Conditions: Salmonella enterica, Salmonella typhimurium (strain not given), read-out: concentration required to inhibit growth (MIC).
Assay [2] relates to Enterobacter cloacae N1. Conditions: read-out: concentration required to inhibit growth (MIC).
Assay [3] relates to Staph. aureus Oxford. Conditions: Staphylococcus aureus, read-out: concentration required to inhibit growth (MIC).
In assay [4] the test system is Serratia marcescens US20. Conditions: read-out: concentration required to inhibit growth (MIC).
Assay [5] concerns Shigella sonnei MB 11967. Conditions: MB11967, read-out: concentration required to inhibit growth (MIC).
The subject of assay [6] is Klebsiella aerogenes A. Conditions: read-out: concentration required to inhibit growth (MIC).
Assay [7] concerns Staph. aureus Russell. Conditions: Staphylococcus aureus, read-out: concentration required to inhibit growth (MIC).
The test system of assay [8] is Strep pyogenes CN10. Conditions: Streptococcus pyogenes, Staph. pyogenes CN 10 (so in the source), read-out: concentration required to inhibit growth (MIC).
The test system of assay [9] is Staph. aureus 1517. Conditions: Staphylococcus aureus, read-out: concentration required to inhibit growth (MIC).
Assay [10] concerns E. coli 0111. Conditions: Escherichia coli, read-out: concentration required to inhibit growth (MIC).
The test system of assay [11] is Salmonella typhimurium CT10. Conditions: Salmonella enterica, read-out: concentration required to inhibit growth (MIC).
For assay [12], the system named is Proteus mirabilis C977. Conditions: read-out: concentration required to inhibit growth (MIC).
Assay [13] has as its system Proteus morganii I 580. Conditions: Morganella morganii, I580, read-out: concentration required to inhibit growth (MIC).
Assay [14] deals with Proteus rettgeri WM16. Conditions: Providencia rettgeri, read-out: concentration required to inhibit growth (MIC).
Assay [15] deals with Citrobacter freundii E8. Conditions: read-out: concentration required to inhibit growth (MIC).
Assay [16] concerns Bacillus subtilis A. Conditions: read-out: concentration required to inhibit growth (MIC).

For the compound `N#C/C=C/C[C@@H]1C(=O)N2C(C(=O)OC3OC(=O)c4ccccc43)=CC[C@H]12` (relative stereo) [Compound 61, Phthalidyl 6-(3-cyano-2-propen-1-yl)-7-oxo-1-azabicyclo[3.2.0]hept-2-ene-2-carboxylat], in [1], the MIC is 7 µg/mL (≈ 20 µM).

Take `CC(C)(O)[C@@H]1C(=O)N2C(C(=O)OCc3ccccc3)=CC[C@H]12` (relative stereo) [Example 4 cis-isomer, Benzyl 6-(2-hydroxy-2-propyl)-7-oxo-1-azabicyclo[3,2,0]hept-2-ene-2-carboxylate]: the MIC in assay [2] is 20 µg/mL (≈ 66.4 µM); in assay [3], not above 2 µg/mL; in assay [4] it was 20 µg/mL (≈ 66.4 µM); in [5], not above 2 µg/mL; in assay [6], not above 2 µg/mL; in assay [7], not above 2 µg/mL.

For `COC(=O)/C=C/C[C@@H]1C(=O)N2C(C(=O)OC3OC(=O)c4ccccc43)=CC[C@H]12` (relative stereo) [Compound 41, Phthalidyl 6-(3-methoxycarbonyl-2-propen-1-yl)-7-oxo-1-azabicyclo[3,2,0]hept-2-ene-2-carboxylate], the MIC was not above 0.8 µg/mL in assay [3]; not above 0.8 µg/mL in assay [8]; not above 0.8 µg/mL in assay [9]; 50 µg/mL (≈ 130 µM) in assay [5]; 50 µg/mL (≈ 130 µM) in assay [6]; not above 0.8 µg/mL in assay [7]. For the same compound, the MIC in [10] is 50 µg/mL (≈ 130 µM); in [11], 50 µg/mL (≈ 130 µM); in [12], 100 µg/mL (≈ 261 µM).

In the case of `N#C/C=C/C[C@@H]1C(=O)N2C(C(=O)OCc3ccccc3)=CC[C@H]12` (relative stereo) [Compound 56, Benzyl 6-(3-cyano-2-propen-1-yl)-7-oxo-1-azabicyclo[3,2,0]hept-2-ene-2-carboxylat], the MIC is 20 µg/mL (≈ 64.9 µM) in [2]; not above 2 µg/mL in assay [3]; 20 µg/mL (≈ 64.9 µM) in assay [13]; not above 2 µg/mL in [9]; 20 µg/mL (≈ 64.9 µM) in assay [4]; 20 µg/mL (≈ 64.9 µM) in [5]. The MIC is 20 µg/mL (≈ 64.9 µM) in [6]; not above 2 µg/mL in assay [7]; 20 µg/mL (≈ 64.9 µM) in assay [10]; 20 µg/mL (≈ 64.9 µM) in assay [14]; 20 µg/mL (≈ 64.9 µM) in assay [11]; 20 µg/mL (≈ 64.9 µM) in assay [12]. Besides, the MIC in [15] and in assay [16] was 20 µg/mL (≈ 64.9 µM) in each case.
